According to US11904040B2, “Zinc-amino acid-lauryl sulfate complex with antimicrobial activity” (Colgate-Palmolive Company, priority 2018, dated 2024):

Tests used:
[1] = Potentiometric titration, stability constants of the Zn, Lysine, SLS system; details: 25C, 50:50 glycerin:de-ionized water, 100 mM KNO3, 5 mM Zn
S. mutans = assay: Metabolic inhibition of S. mutans (autotitrator base consumption after glucose); type: cell-based; details: for % Metabolic Reduction: S. mutans in 135 mM KCl, final zinc concentration 2.5 ppm (SLS equimolar to LS in Zn(Lys)2(LS)2), pH 7, 30 minutes, vs control containing only bacteria
Protocol: The chelation of zinc can modify its efficacy as an antibacterial agent. […] S. mutans is one of the prevalent bacteria present in the oral cavity. A concentrated suspension of S. mutans in 135 mM KCl was treated with a known concentration of zinc salt to obtain a final zinc concentration of 2.5 ppm. […] Using an autotitrator (Methrom Titrando 902) equipped with a 0.01M solution of KOH, the bacterial suspension was equilibrated to pH=7. After equilibrating, glucose was added to the solution. The autotitrator maintained the pH at 7 through the precise addition of KOH solution. The experiment was allowed to proceed for 30 minutes and the volume of base added was recorded at 10 second intervals. After 30 mins, a growth curve of base addition over time was obtained. The area under this curve was compared to the area under the curve for a control sample containing only bacteria and used to calculate a % reduction value. The control sample was analyzed from the same bacterial suspension as the test sample and the two samples were analyzed within 3 hours of each other. In order for data from a given suspension of S. mutans to be included, the control sample must consume at least 5 mL of base solution during the 30 minute time period.

Molecule	Log(B) stability constant [1]	% Metabolic Reduction (S. mutans)	antibacterial performance compared to corresponding zinc-amino acid complex (S. mutans; S. mutans metabolic reduction, Table 10)
NCCCC[C@H](N)C(=O)O [HLys]	10.07		
CCCCCCCCCCCCOS(=O)(=O)[O-].[Na+] [Sodium lauryl sulfate, sodium lauryl sulfate]		34.12 ± 1.56%	
NCCCCC(N)C(=O)O.NCCCCC(N)C(=O)O.[Cl-].[Cl-].[Zn+2] (stereo not shown) [ZLC, [Zn(C6H14N2O2)2Cl]^+Cl^−]		53.90 ± 2.36%	
O=[N+]([O-])[O-].O=[N+]([O-])[O-].[Zn+2] [Zn(NO3)2]		67.16 ± 2.49%	
zinc arginate [[Zn(Arg)2]^2+]		67.19 ± 0.32%	
zinc-arginine-lauryl sulfate [Zn(Arg)2(LS)2]		72.53 ± 3.76%	directionally improved antibacterial performance compared to [Zn(Arg)2]^2+
